{"source": "patent US20250387382A1", "about": "“METHODS OF TREATING ESSENTIAL TREMOR” (Praxis Precision Medicines, Inc., priority 2023, published 2025)", "type_in_all_cases": "in vivo, human", "key": {"[1]": {"test_system": "healthy participants and patients with ET", "experiment": "Safety across the clinical development program"}, "patients with ET [2]": {"test_system": "patients with ET", "experiment": "Randomized withdrawal sub-study / blinded 6-week crossover period of the Phase 2 extension", "from_the_text": "At the re-randomization visit for the cross-over period, and every 7 days in that portion of the study, the treatment regimen was assigned by the IRT and dispensed by site pharmacist for direct-to-patient (DTP) shipping. In the cross-over period of the trial, all participants were centrally assigned to randomize to remain on the current regimen of Compound 1 or placebo using an IRT. After 3 weeks, participants receiving placebo were switched over to Compound 1 following the regimen described in Table 3. The IRT assigned treatment regimen based on the Tetras ADL response criteria after day 7.\nThe open-label protocol was amended to further assess the criteria to be used in the upcoming randomized withdrawal study in Phase 3 (as described in Example 3). In this sub-study, patients were re-randomized in a blinded-fashion to either receive placebo or continue to receive Compound 1. Twenty-one patients who completed assessments at week 14 of the Open Label Extension were eligible to participate in the blinded sub-study.\nPatients were evaluated weekly over a total of 6 weeks, with 11 patients assigned to Compound 1 and 10 patients assigned to placebo for the initial 3-week period, crossing over to either placebo or Compound 1 for an additional 3-week period. Blinded rescue was triggered for patients on placebo if loss in the mADL11 exceeded 2 points at any timepoint.\nThe results of the Phase 2 trials with ulixacaltamie (see Examples 1 and 2) support the efficacy and safety of ulixacaltamide in patients with ET. […] In the double-blind (DB) portion of the Phase 2 study, the rescored TETRAS-ADL items 1-11 (mADL11) score decreased more in participants randomized to Compound 1 compared with placebo after 56 days of dosing, with least square mean (LSM standard error [SE]) scores of ([…] [0.81]) compared with placebo (−0.87 [0.95]). The LSM (95% confidence interval [CI]) treatment difference was −1.82 (95% CI: −3.565, −0.066; with a nominal p value of <0.05). In the Phase 2 extension period, 20 participants completed a blinded 6-week crossover period. Participants were randomized in blinded fashion to either 3 weeks of Compound 1 60 mg or placebo. Rescue treatment (Compound 1) was offered to participants if their mADL11 worsened by a preset threshold. […] None of the Compound 1-treated participants and 9 of 21 placebo-treated participants qualified for and received rescue treatment within the 3-week period."}, "[3]": {"experiment": "Phase 1 trial: effect of a high-fat, high-calorie meal on pharmacokinetics", "settings": "120 mg dose, steady state, healthy adult participants", "description": "The effect of a high-fat, high-calorie meal on the pharmacokinetics of Compound I was evaluated in healthy participants who had previously received Compound 1 under fasted conditions in a Phase 1 trial. The effect of a high-fat, high-calorie meal on the PK of Compound 1 was evaluated at the 120 mg dose level after healthy adult participants had titrated to reach steady-state exposure. Following administration of 120 mg dose in the fed state or fasted state, the maximum plasma drug concentration (Cmax) and AUC, values were similar. Based on this analysis, Compound 1 may be administered without regard to food."}, "patients with ET [4]": {"test_system": "patients with ET", "experiment": "Open-label extension of the Phase 2 trial (blinded six-week lead-in, week 14 assessment)", "description": "After the DB part of the trial was complete, participants were able to choose to enter the Extension part of the trial. Participants who chose to enter the Extension began receiving OL study drug for up to 12 months, or start of the cross-over period, after a 43-day Extension DB Lead-in Period, whichever was earlier. During this Extension DB Lead-in Period, participants who received placebo or 60 mg in the DB part of the trial titrated up to 100 mg in a DB fashion utilizing the same dose titration regimen as in the DB part of the trial. Participants who received 100 mg in the DB part of the trial continued to receive 100 mg in a blinded fashion until all participants were receiving Compound 1 100 mg QAM as of Day 99. Participants who were unable to tolerate fixed-dose titration to 100 mg during the Extension DB Lead-in Period were discontinued from the trial and asked to attend the Safety Follow-up/EOS-E Visit. After the Extension DB Lead-in Period, participants flexibly dosed with Compound 1 (20-100 mg) QAM at the discretion of the Investigator during the Extension OL Period until the start of the cross-over period. Participants who consented to participate in the separate LTSS were able to end participation in the current study after completing the End of Treatment Visit and join the LTSS at any point during the Extension OL Period.\nAll participants who continued into the Extension part of the trial participated in a 43 day Extension DB Lead-in Period so all participants could be titrated to the 100-mg dose in a blinded fashion (Table 2) before receiving open-label, flexible doses of Compound 1 (20-100 mg) for up to 12 months (Days 100-459) during the Extension OL Period.\nFollowing completion of the initial 8 weeks double-blind treatment phase of the Phase 2 trial described in Example 1, eligible patients had the option to continue their access to Compound 1 in an open-label extension phase (OLE). Participants who continued to the open label extension (OLE) phase remained blinded for a six-week lead-in phase.\nIn the Extension part of the trial, measures of efficacy include analysis of change from baseline to Days 70, 84, 99, 129, 159, 189, 279, 369, and 459 in modified ADL, CGI-S, TETRAS-ADL total score, TETRAS-PS total score, TETRAS UL score, TETRAS CUL score, and CGI-I and PGI-C scores at Days 70, 84, 99, 129, 159, 189, 279, 369, and 459.\nA total of 65 patients who completed the double-blinded portion of the Phase 2 trial described in Example 1 were eligible to participate in the OLE and completed the week 14 assessment. FIG. 21 is a bar graph showing change in mADL11 scores from baseline, by study week from week 8 to week 14. Patients who were eligible and continued on Compound 1 (n=39) experienced an additional mean improvement in mADL11 of 1.7 points from 3.09 at Weck 8 (95% CI: 0.98, 5.2) to 4.81 (95% CI: 2.38, 7.23) after 14 weeks of treatment. Patients who switched from placebo to Compound 1 treatment during the OLE 6-week lead-in (n=26) experienced mean improvement in mADL11 of 3.15 points from 1.21 at Week 8 (95% CI: −1.04, 3.46) to 4.36 (95% CI: 1.68, 7.05."}, "[5]": {"settings": "patients who switched from Compound 1 to placebo"}, "[6]": {"settings": "patients who continued on Compound 1, n=39"}, "[7]": {"settings": "patients who switched from placebo to Compound 1, n=26"}}, "note": "Entries after “also recorded” stand apart in the source; their conditions may differ.", "data": [{"smiles": "CC(C)(C)NC(=O)CN1CCC(CNC(=O)c2cc(F)cc(Cl)c2)CC1", "note": "[Compound 1, N-((1-(2-(tert-butylamino)-2-oxoethyl)piperidin-4-yl)methyl)-3-chloro-5-fluorobenzamide]", "values": [{"measurement": "Deaths or SAEs considered related to study drug", "setting": "[1]; human, in vivo", "value": "No deaths or serious adverse events (SAEs)"}, {"measurement": "Suicide attempts or pregnancies reported", "setting": "[1]; human, in vivo", "value": "no suicide attempts or pregnancies"}, {"measurement": "Safety profile", "setting": "[1]; modified release formulation, titration, 5 to 120 mg for up to 129 days", "value": "favorable safety profile"}, {"measurement": "Tolerability", "setting": "[1]; up to 129-days of daily administration, 5 to 120 mg, titration schedule", "value": "generally well tolerated"}, {"measurement": "Patients who maintained their mADL11 within 3-points compared to baseline", "setting": "patients with ET [2]; 52% on placebo", "value": 85, "unit": "%"}, {"measurement": "Participants with maintenance of response", "setting": "patients with ET [2]; crossover period, Compound 1 60 mg, 11 of 21 on placebo", "value": "17 of 20"}, {"measurement": "Safety signals", "setting": "patients with ET [2]; in vivo", "value": "No new safety signals emerged; also recorded: No new safety signal was identified"}, {"measurement": "Average loss of effect in mADL11 per week", "setting": "patients with ET [2]; [5]", "value": 47, "unit": "%"}, {"measurement": "Mean loss of effect in mADL11", "setting": "patients with ET [2]; [5]", "value": "−1.15", "unit": "points/week"}, {"measurement": "Improvement in global mean change in mADL11 per week", "setting": "patients with ET [2]; periods receiving Compound 1", "value": 6, "unit": "%"}, {"measurement": "Mean improvement in mADL11", "setting": "patients with ET [2]; periods receiving Compound 1", "value": 0.16, "unit": "points/week"}, {"measurement": "Participants who qualified for and received rescue treatment", "setting": "patients with ET [2]; within the 3-week period, 9 of 21 on placebo", "value": "None"}, {"measurement": "AUC, fed state vs fasted state", "setting": "[3]", "value": "similar"}, {"measurement": "Cmax, fed state vs fasted state", "setting": "[3]", "value": "similar"}, {"measurement": "Additional mean improvement in mADL11 from Week 8 to week 14", "setting": "patients with ET [4]; [6]", "value": 1.7, "unit": "points"}, {"measurement": "mADL11 mean improvement from baseline after 14 weeks", "setting": "patients with ET [4]; [6]", "value": 4.81, "unit": "points"}, {"measurement": "mADL11 mean improvement from baseline at Week 8", "setting": "patients with ET [4]; [6]", "value": 3.09, "unit": "points"}, {"measurement": "Mean improvement in mADL11 from Week 8 during OLE 6-week lead-in", "setting": "patients with ET [4]; [7]", "value": 3.15, "unit": "points"}, {"measurement": "mADL11 mean improvement from baseline after OLE 6-week lead-in", "setting": "patients with ET [4]; [7]", "value": 4.36, "unit": "points"}, {"measurement": "Overall safety results", "setting": "patients with ET [4]; through 14 weeks of treatment", "value": "no change to the overall safety results"}]}]}
